In test [1] the target is T1, TxA₂ Synthase (Rattus norvegicus, UniProt P49430).
T1 construct: Blood was withdrawn from the abdominal aorta of the animals under light ether anesthesia; from tissue; host or cells: rat whole blood (clotting; platelets)
T1 sequence (P49430 1-533): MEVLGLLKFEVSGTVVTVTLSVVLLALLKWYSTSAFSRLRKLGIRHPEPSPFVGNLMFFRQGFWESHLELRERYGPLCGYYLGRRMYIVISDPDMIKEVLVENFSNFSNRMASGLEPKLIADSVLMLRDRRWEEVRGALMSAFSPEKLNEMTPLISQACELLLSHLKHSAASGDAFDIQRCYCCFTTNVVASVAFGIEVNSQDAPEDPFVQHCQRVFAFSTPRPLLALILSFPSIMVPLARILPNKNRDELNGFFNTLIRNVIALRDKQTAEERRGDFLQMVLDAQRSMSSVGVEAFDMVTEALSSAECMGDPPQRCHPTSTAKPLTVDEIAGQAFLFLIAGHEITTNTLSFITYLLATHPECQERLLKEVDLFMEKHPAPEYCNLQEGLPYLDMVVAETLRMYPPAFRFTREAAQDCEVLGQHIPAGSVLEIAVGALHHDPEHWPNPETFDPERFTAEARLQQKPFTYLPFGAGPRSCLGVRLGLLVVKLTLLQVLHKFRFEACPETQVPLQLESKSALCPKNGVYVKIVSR
As to the kind of experiment: In vitro effects on TxB₂ production in rat whole blood during clotting (RIA). The format is cell-based. The conditions noted are these: result in words. The method, then: The compounds of formula (I) were for example tested for their ability to inhibit TxA₂ Synthase activity (as reflected by TxB₂ generated in whole blood during clotting or in isolated glomeruli) in vitro in the rat.
The in vitro experiments were carried out as follows: The effect of the compounds on TxA₂ synthesis was evaluated in serum.
Blood was withdrawn from the abdominal aorta of the animals under light ether anesthesia.
Samples were then allowed to clot for 1 h at 37°C, centrifuged at 3000 rpm for 10 min, serum collected and stored at -20°C until assayed. TxB₂ levels were determined by RIA according to previously described procedures [Patrono et al. - Thromb.

Test [2] deals with T2, TxA₂ synthase (Homo sapiens, UniProt P24557).
T2 sequence (P24557 1-533): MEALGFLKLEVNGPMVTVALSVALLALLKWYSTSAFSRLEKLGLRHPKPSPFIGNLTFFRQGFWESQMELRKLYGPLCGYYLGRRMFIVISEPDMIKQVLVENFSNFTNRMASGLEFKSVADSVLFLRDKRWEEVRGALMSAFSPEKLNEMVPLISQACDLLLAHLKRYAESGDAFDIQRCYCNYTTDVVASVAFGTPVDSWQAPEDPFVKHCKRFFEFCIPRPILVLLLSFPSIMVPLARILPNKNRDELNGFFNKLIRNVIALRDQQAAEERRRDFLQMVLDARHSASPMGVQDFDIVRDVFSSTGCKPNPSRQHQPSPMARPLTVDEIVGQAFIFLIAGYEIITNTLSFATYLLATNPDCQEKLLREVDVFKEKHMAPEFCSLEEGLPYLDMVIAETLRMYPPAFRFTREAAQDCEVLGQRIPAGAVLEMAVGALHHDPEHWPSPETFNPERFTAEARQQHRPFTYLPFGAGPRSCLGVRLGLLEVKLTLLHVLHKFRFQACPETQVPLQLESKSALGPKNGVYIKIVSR
The conditions noted are these: statement on the known compound; cited from earlier work.

Consider two compounds from patent EP0611765A1, “2-(Imidazol-1-yl)-3-heteroarylpropylidene-aminoxyalkanoic acid derivatives” (PHARMACIA S.p.A., priority 1993, dated 1994).

Turning to `O=C(O)CCCCO/N=C(\C1CCCCC1)C(Cc1cnccn1)n1ccnc1` (racemic) [FCE 27751, (±)-(E)-5-[2-pyrazinylmethyl-2-(imidazol-1-yl)-1-cyclohexylethylidene]aminoxypentanoic acid], the “inhibitory activity on TxA₂ synthesis” value on TxA₂ Synthase [1] is given as “marked inhibitory activity”.
As for `O=C(O)COc1ccc(CCNS(=O)(=O)c2ccccc2)cc1` [BM 13177, Sulotroban], the “TxA₂ synthase inhibitory activity” value on TxA₂ synthase [2] is “devoid of TxA₂ synthase inhibitory activity”.
